Read-outs that look alike come from different tables or passages of the source.
Tests used:
LXRβ [1] = target: T1, LXRβ (Homo sapiens, UniProt P55055); experiment: LXR Gal4 reporter transient transfection assay (mammalian two-hybrid, HEK293), LXRβ; assay type: cell-based; conditions: ligand-binding domain (LBD) of LXRβ, HEK293; read-out: LBD-M2H Gal4β
T1 construct: LXRβ (amino acids 156-461); expressed in transfected cells; host or cells: HEK293
T1 sequence (P55055 156-460): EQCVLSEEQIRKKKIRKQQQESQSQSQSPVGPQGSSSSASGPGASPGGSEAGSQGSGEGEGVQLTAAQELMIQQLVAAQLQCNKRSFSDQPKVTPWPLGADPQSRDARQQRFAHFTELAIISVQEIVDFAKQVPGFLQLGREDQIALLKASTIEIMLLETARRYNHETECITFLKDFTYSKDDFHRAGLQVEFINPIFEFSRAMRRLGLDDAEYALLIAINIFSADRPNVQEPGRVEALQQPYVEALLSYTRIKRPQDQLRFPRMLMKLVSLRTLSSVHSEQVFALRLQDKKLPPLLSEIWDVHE
How it was run: (§1)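 Mammalian two-hybrid read-out of LXR–coactivator (SRC1) or corepressor (NCoR) interaction: firefly luciferase under GAL4 response elements, normalised via Renilla co-transfection. LXRα/β full-length or LBD fusions expressed transiently in HEK293; compounds (final DMSO ≤0.2%) given 4 h after transfection for 16 h before lysis.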

[2] = target: T2, GST-LXRβ ligand-binding domain (Homo sapiens, UniProt P55055); experiment: TR-FRETβ activity assay (NCoA3 coactivator peptide recruitment); assay type: biochemical; conditions: 1 μM 24(S)-25-epoxycholesterol prestimulation
T2 construct: amino acids 156-461; NP009052; made in house; host or cells: E. coli
T2 sequence (P55055 156-460 limits assumed): T1 sequence (P55055 156-460)
How it was run: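 Inverse-agonist format, with LXR prestimulated by 1 μM 24(S)-25-epoxycholesterol in pH 6.8 Tris/HCl, 240 mM KCl, BSA and Triton. Ten concentrations from 50 μM to 0.002 μM were equilibrated 1 h at 4° C with 76 nM GST-LXRβ LBD and 400 nM biotin-NCoA3 peptide. Peptide recruitment detected by 665/615 nm TR-FRET.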

LXRα [3] = target: T3, LXRα (Homo sapiens, UniProt Q13133); experiment: LXR Gal4 reporter transient transfection assay (mammalian two-hybrid, HEK293), LXRα; assay type: cell-based; conditions: ligand-binding domain (LBD) of LXRα, HEK293; read-out: LBD-M2H Gal4α
T3 construct: expressed in transfected cells; host or cells: HEK293
T3 sequence (Q13133 155-447): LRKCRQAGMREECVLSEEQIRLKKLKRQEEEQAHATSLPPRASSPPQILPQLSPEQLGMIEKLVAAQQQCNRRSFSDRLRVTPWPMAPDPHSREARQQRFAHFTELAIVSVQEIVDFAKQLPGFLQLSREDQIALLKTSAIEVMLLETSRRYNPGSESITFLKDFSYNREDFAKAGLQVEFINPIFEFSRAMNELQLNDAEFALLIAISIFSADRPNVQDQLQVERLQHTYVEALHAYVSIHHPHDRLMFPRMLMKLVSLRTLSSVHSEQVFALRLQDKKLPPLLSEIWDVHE
Procedure: (§2) LXRα and LXRβ activity status was determined via detection of interaction with coactivator and corepressor proteins in mammalian two-hybrid experiments (M2H). For this, via transient transfection the full length (FL) proteins of LXRα (amino acids 1-447; NP005684; SEQ ID NO:1) or LXRβ-(amino acids 1-461; NP009052; SEQ ID NO:2) or the ligand-binding domains (LBD) of LXRα (amino acids 155-447 SEQ ID NO:3) or LXRβ (amino acids 156-461; SEQ ID NO:4) were expressed from pCMV-AD (Stratagene) as fusions to the transcriptional activation domain of NFkB. As cofactors, domains of either the steroid receptor coactivator 1 (SRC1; amino acids 552-887; SEQ ID NO:5) or of the corepressor NCoR (amino acids 1906-2312; NP006302; SEQ ID NO:6) were expressed as fusions to the DNA binding domain of the yeast transcription factor GAL4 (from pCMV-BD; Stratagene). Interaction was monitored via activation of a coexpressed Firefly Luciferase Reporter gene under control of a promoter containing repetitive GAL4 response elements (vector pFRLuc; Stratagene). Transfection efficiency was controlled via cotransfection of constitutively active pRL-CMV Renilla reniformis luciferase reporter (Promega). HEK293 cells were grown in minimum essential medium (MEM) with 2 mM L-glutamine and Earle's balanced salt solution supplemented with 8.3% fetal bovine serum, 0.1 mM non-essential amino acids, 1 mM sodium pyruvate, at 37° C. in 5% CO2. 3.5×10^4 cells/well were plated in 96-well cell culture plates in growth medium supplemented with 8.3% fetal bovine serum for 16-20 h to ˜90% confluency. For transfection, medium was taken off and LXR and cofactor expressing plasmids as well as the reporter plasmids are added in 30 μL OPTIMEM/well including polyethylene-imine (PEI) as vehicle. Typical amounts of plasmids transfected/well: pCMV-AD-LXR (5 ng), pCMV-BD-cofactor (5 ng), pFR-Luc (100 ng), pRL-CMV (0.5 ng). Compound stocks were prepared in DMSO, prediluted in MEM to a total volume of 120 μL, and added 4 h after addition of the transfection mixture (final vehicle concentration not exceeding 0.2%). Cells were incubated for additional 16 h, lysed for 10 min in 1×Passive Lysis Buffer (Promega) and Firefly and Renilla luciferase activities were measured sequentially in the same cell extract using buffers containing D-luciferine and coelenterazine, respectively. Measurements of luminescence were done in a BMG-luminometer.
(§3) The potencies of Compound 21/3 and its analog, Compound pre-6/3, against LXRα and LXRβ were evaluated in biochemical binding assays, cellular mammalian two-hybrid (M2H) interaction assays evaluating nuclear receptor co-repressor (NCOR) recruitment, and cellular reporter assays evaluating transcriptional activity (Table 5).

[4] = Pharmacokinetics in mice after single oral dosing (blood/plasma and liver exposure); assay type: in vivo; conditions: 20 mg/kg single oral dose, time point 4 h
Procedure: The pharmacokinetics of the compounds was assessed in mice after single dosing and oral administrations. Blood/plasma and liver exposure was measured via LC-MS.
The study design was as follows: • Animals: C57/bl6/J (Janvier) males • Diet: standard rodent chow • Dose: 20 mg/kg • Animal handling: animals were withdrawn from food at least 12 h before administration • Design: single dose oral administration, n=3 animals per group • Sacrifice: at stated time point (4, 12 or 24 h) after administration • Bioanalytics: LC-MS of liver and blood/plasma samples

LXRβ [5] = target: T4, LXRβ (Homo sapiens, UniProt P55055); experiment: LXR Gal4 reporter transient transfection assay (mammalian two-hybrid, HEK293), LXRβ; assay type: cell-based; parameters: LXRβ (amino acids 156-461); expressed in transfected cells; host or cells: HEK293; conditions: full length (FL) LXRβ, HEK293; read-out: FL-M2H Gal4β
T4 sequence (P55055 1-460): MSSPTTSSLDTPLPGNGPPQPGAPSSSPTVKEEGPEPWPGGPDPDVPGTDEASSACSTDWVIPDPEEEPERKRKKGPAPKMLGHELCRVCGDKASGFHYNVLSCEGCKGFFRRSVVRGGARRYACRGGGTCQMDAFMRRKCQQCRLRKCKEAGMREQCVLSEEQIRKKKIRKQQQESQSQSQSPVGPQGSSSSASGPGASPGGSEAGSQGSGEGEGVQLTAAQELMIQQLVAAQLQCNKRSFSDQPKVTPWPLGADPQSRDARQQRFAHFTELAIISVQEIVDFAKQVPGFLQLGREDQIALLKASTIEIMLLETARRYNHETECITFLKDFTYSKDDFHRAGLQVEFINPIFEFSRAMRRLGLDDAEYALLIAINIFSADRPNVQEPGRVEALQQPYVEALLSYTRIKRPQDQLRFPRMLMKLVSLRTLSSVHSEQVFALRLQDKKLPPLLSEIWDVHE
How it was run: as §1

LXRα [6] = target: T5, LXRα (Homo sapiens, UniProt Q13133); experiment: LXR Gal4 reporter transient transfection assay (mammalian two-hybrid, HEK293), LXRα; assay type: cell-based; parameters: expressed in transfected cells; host or cells: HEK293; conditions: full length (FL) LXRα, HEK293; read-out: FL-M2H Gal4α
T5 sequence (Q13133 1-447): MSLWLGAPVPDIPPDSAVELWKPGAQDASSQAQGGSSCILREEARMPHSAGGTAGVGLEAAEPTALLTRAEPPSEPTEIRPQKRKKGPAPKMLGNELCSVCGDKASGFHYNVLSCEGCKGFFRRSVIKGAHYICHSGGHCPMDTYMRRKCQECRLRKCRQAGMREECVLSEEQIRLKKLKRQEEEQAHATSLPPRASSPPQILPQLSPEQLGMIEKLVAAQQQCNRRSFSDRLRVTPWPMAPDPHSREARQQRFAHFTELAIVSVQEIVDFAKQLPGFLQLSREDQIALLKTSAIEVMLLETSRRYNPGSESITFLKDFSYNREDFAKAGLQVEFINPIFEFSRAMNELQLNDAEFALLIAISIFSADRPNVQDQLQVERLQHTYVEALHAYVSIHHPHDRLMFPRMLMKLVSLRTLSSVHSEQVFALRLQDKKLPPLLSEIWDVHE
Procedure: as §2, §3

Compound | EC50 (LXRβ [1]) [nM] | EC50 [2] [nM] | EC50 (LXRα [3]) [nM] | blood/plasma exposure [4] | liver exposure [4] | liver/blood ratio [4] | EC50 (LXRβ [5]) [nM] | EC50 (LXRα [6]) [nM]
Cc1cccc(S(=O)(=O)n2c(-c3cccc(N4CC(C(=O)O)C4)c3)c(-c3ccsc3C#N)c3cc(F)ccc32)c1 [3/8] | < 100 | 1000 to 10000 | 100 to 1000 |  |  |  |  | 
COc1ccc(S(=O)(=O)n2c(-c3cccs3)c(-c3ccsc3C#N)c3ccccc32)cc1 [20/14] | < 100 | 100 to 1000 | < 100 |  |  |  |  | 
Cc1ccc(S(=O)(=O)n2c(-c3cccc(-c4ccc(CN5CCN(C)CC5)cc4)c3)c(-c3ccsc3C#N)c3cc(F)ccc32)cc1 [Compound 8] |  | 100 to 1000 |  | B (300 nM to ≤1 μM) | D (>3 μM) | B (3 to ≤10) | < 100 | 100 to 1000
N#Cc1sccc1-c1c(-c2cccs2)n(S(=O)(=O)c2ccc(Cl)cc2)c2ccc(O)cc12 [Compound 13] | < 100 | 100 to 1000 | < 100 |  |  |  |  | 
N#Cc1sccc1-c1c(-c2cccs2)n(S(=O)(=O)c2ccc(Cl)cc2)c2ccc(OCC(=O)O)cc12 [Compound 15] | > 10000 | > 10000 | 1000 to 10000 |  |  |  |  | 
O=S(=O)(c1ccc(Cl)cc1)n1c(-c2cccs2)c(-c2ccsc2Cl)c2ccccc21 [Compound 20] | < 100 | 100 to 1000 | < 100 |  |  |  |  | 
N#Cc1sccc1-c1c(-c2cccs2)n(S(=O)(=O)c2ccc(Cl)cc2)c2ccc(C(=O)O)cc12 [Compound 23] | 100 to 1000 | > 10000 | 100 to 1000 |  |  |  |  | 
N#Cc1sccc1-c1c(-c2cncs2)n(S(=O)(=O)c2ccc(Cl)cc2)c2ccccc12 [Compound 25] | < 100 | 1000 to 10000 | 100 to 1000 |  |  |  |  | 
COc1ccc(S(=O)(=O)n2c(-c3ccc(CCC(N)=O)cc3)c(-c3ccsc3C#N)c3ccccc32)cc1 [Compound 28] | 100 to 1000 | 1000 to 10000 | 1000 to 10000 |  |  |  |  | 
Cc1ccc(S(=O)(=O)n2c(-c3cccc(C4CC4C(=O)O)c3)c(-c3ccsc3C#N)c3ccccc32)cc1 (stereo not drawn) [Compound 30] | < 100 | 100 to 1000 | < 100 |  |  |  |  | 
Cc1ccc(S(=O)(=O)n2c(-c3cccc(-c4cccc(C(=O)NS(C)(=O)=O)c4)c3)c(-c3ccsc3C#N)c3ccccc32)cc1 [Compound 32] | 100 to 1000 | 100 to 1000 | 100 to 1000 |  |  |  |  | 
Cc1ccc(S(=O)(=O)n2c(-c3cccc(-c4cnc(C(=O)O)cc4C)c3)c(-c3ccsc3C#N)c3cc(F)ccc32)cc1 [Compound 36] |  | 1000 to 10000 |  |  |  |  | 100 to 1000 | 100 to 1000
Cc1ccc(S(=O)(=O)n2c(-c3cccc(-c4ccc(-c5nnn[nH]5)cc4Cl)c3)c(-c3ccsc3C#N)c3cc(F)ccc32)cc1 [Compound 37] |  | 100 to 1000 |  |  |  |  | < 100 | < 100
N#Cc1cccc(C#N)c1-c1c(-c2cccc(-c3ccc(C(=O)O)cc3Cl)c2)n(S(=O)(=O)c2ccc(C(F)F)cc2)c2cc(F)c(O)cc12 [Compound 44] |  | 100 to 1000 |  |  |  |  | < 100 | < 100
